Measurements taken from patent publication US9012200B2, “Composition of bacterial strains, bioremediation mixture and use of this composition for the removal of contaminants from the soil and the method for purifying the soil contaminants” (priority 2012, dated 2015).
Like-named read-outs stand apart in the source and are kept apart here.

Assays:
[1] = test system: Arthrobacter sp. strain 1N; assay type: cell-based
[2] = test system: Stenotrophomonas sp. strain 6L; assay type: cell-based
[3] = test system: Achromobacter sp. strain 4P; assay type: cell-based
[4] = test system: Stenotrophomonas sp. strain 3N; assay type: cell-based
[5] = test system: Brevundimonas sp. strain 6N; assay type: cell-based
[6] = test system: Stenotrophomonas sp. strain 2L; assay type: cell-based
[7] = test system: Brevundimonas sp. strain 2N; assay type: cell-based
[8] = test system: Pseudomonas sp. strain 4G; assay type: cell-based
[9] = test system: Stenotrophomonas sp. strain 5L; assay type: cell-based
[10] = test system: Brevundimonas sp. strain 5N; assay type: cell-based
[11] = test system: Pseudomonas sp. strain 3G; assay type: cell-based
[12] = test system: investigated strains of bacteria; assay type: cell-based
[13] = test system: model strain Escherichia coli; conditions: according to Spain, 2003; cited from earlier work

Row | Molecule | MIC threshold values of heavy metals [1] | MIC threshold values of heavy metals [2] | MIC threshold values of heavy metals [3] | MIC threshold values of heavy metals [4] | MIC threshold values of heavy metals [5] | MIC threshold values of heavy metals [6] | MIC threshold values of heavy metals [7] | MIC threshold values of heavy metals ([8]; 24 h) | MIC threshold values of heavy metals ([8]; 48 h) | MIC threshold values of heavy metals [9] | MIC threshold values of heavy metals [10] | MIC threshold values of heavy metals ([11]; 24 h) | Susceptibility of the investigated strains to the heavy metal [12] | MIC [13] | also measured
1 | O=S(=O)([O-])[O-].[Cu+2] [Cu(II), Copper sulphate] | 3 mM/L | 3(4) mM/L | 3 mM/L | 3(4) mM/L | 3(4) mM/L | 3 mM/L | 3(4) mM/L | 3 mM/L | 4 mM/L | 3 mM/L | 3(4) mM/L | 3 mM/L | resistant | 1 mM/L | 
2 | [Cl][Ni][Cl] [Ni(II), Nickel chloride] |  |  |  |  |  |  |  | 1 mM/L | 2 mM/L |  |  | 1 mM/L |  | 1 mM/L | MIC threshold values of heavy metals ([1]; strain 1N, 24 h): 1 mM/L; MIC threshold values of heavy metals ([1]; strain 1N, 48 h): 2 mM/L; MIC threshold values of heavy metals ([2]; strain 6L, 24 h): 1 mM/L; MIC threshold values of heavy metals ([2]; strain 6L, 48 h): 2 mM/L; MIC threshold values of heavy metals ([3]; strain 4P, 24 h): 1 mM/L; MIC threshold values of heavy metals ([4]; strain 3N, 24 h): 1 mM/L; MIC threshold values of heavy metals ([4]; strain 3N, 48 h): 2 mM/L; MIC threshold values of heavy metals ([5]; strain 6N, 24 h): 1 mM/L; MIC threshold values of heavy metals ([5]; strain 6N, 48 h): 2 mM/L; MIC threshold values of heavy metals ([6]; strain 2L, 24 h): 1 mM/L; MIC threshold values of heavy metals ([7]; strain 2N, 24 h): 1 mM/L; MIC threshold values of heavy metals ([7]; strain 2N, 48 h): 2 mM/L; MIC threshold values of heavy metals ([9]; strain 5L, 24 h): 1 mM/L; MIC threshold values of heavy metals ([10]; strain 5N, 24 h): 1 mM/L; MIC threshold values of heavy metals ([11]; 48 h): 2 mM/L; Susceptibility of the investigated strains to the heavy metal ([12]; compared with literature data for the model strain): semi-susceptible
3 | O=S(=O)([O-])[O-].[Zn+2] [Zn(II), Zinc sulphate] | 4 mM/L | 4(5) mM/L | 3(5) mM/L | 3(4) mM/L | 2(3) mM/L | 3(4) mM/L | 3(4) mM/L | 4 mM/L |  | 4(5) mM/L | 2(4) mM/L | 4 mM/L | resistant | 1 mM/L | 
4 | Sodium arsenite [As (III)] | 5(8) mM/L | 5(7) mM/L | 5(6) mM/L | 3(5) mM/L | 4(7) mM/L | 4(6) mM/L | 5(7) mM/L | 5 mM/L | 8 mM/L | 5(7) mM/L | 4(7) mM/L | 5 mM/L | resistant | 0.5 mM/L | 
